According to PubChem BioAssay (NCI):
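Interpolation was linear, between the two tested concentrations surrounding the appropriate level; five concentrations were tested over 48 hours in 96-well plates. GI50 is the concentration that inhibits growth by half. Definition used: TGI = concentration required for complete inhibition of growth.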

Experiments:
Assay in all cases: growth of human tumour cells (NCI), 48 h
[1] = test system: CAKI-1 renal
[2] = test system: UACC-62 melanoma
[3] = test system: M14 melanoma
[4] = test system: EKVX NSCLC
[5] = test system: IGROV1 ovarian
[6] = test system: U251 CNS
[7] = test system: OVCAR-3 ovarian
[8] = test system: NCI-H460 lung
[9] = test system: MDA-MB-231 breast
[10] = test system: HOP-92 NSCLC

Row | Compound | GI50 [1] | TGI [1] | GI50 [2] | TGI [2] | GI50 [3] | TGI [3] | GI50 [4] | TGI [4] | GI50 [5] | TGI [5] | GI50 [6] | TGI [6] | GI50 [7] | TGI [7] | GI50 [8] | TGI [8] | GI50 [9] | TGI [9] | GI50 [10] | TGI [10]
1 | COc1cc2c3c(n(CCCN4CCSCC4)c(=O)c2cc1OC)-c1cc2c(cc1C3=O)OCO2 | 21.1 µM | > 100 µM | 37.5 µM | > 100 µM | > 100 µM | > 100 µM | > 100 µM | > 100 µM | 28.8 µM | 86.2 µM | > 100 µM | > 100 µM | 35 µM | 97.1 µM | 49.7 µM | > 100 µM | 25.2 µM | 89.9 µM | 19.4 µM | 46.3 µM
2 | NCC(Cc1ccccc1)P(=O)(O)O (stereo not given) | – | > 100 µM | – | > 100 µM | – | > 100 µM | – | > 100 µM | – | > 100 µM | – | > 100 µM | – | > 100 µM | – | > 100 µM | – | > 100 µM | – | > 100 µM
3 | Cc1ccccc1CNc1c2ccccc2nc2ccccc12 | 1.42 µM | 3.45 µM | 1.83 µM | 4.28 µM | 1.51 µM | 3.2 µM | 2.43 µM | 8.02 µM | 2 µM | 5.01 µM | 2.91 µM | 11.4 µM | 2.39 µM | 5.93 µM | 1.86 µM | 4.71 µM | 1.7 µM | 4.19 µM | 0.834 µM | 4.54 µM
4 | COc1cc2c(cc1OC)C(SC)C(=O)N(Cc1cccc(OC)c1OC)CC2 (stereo not given) | – | > 88.5 µM | – | 30.2 µM | – | 26.5 µM | – | > 100 µM | – | > 90.8 µM | – | > 69.3 µM | – | 7.03 µM | – | 28.8 µM | – | > 100 µM | – | 16.9 µM
5 | COc1cc(OC)c(/C=C/C(=O)c2c(N)cc(OC)cc2OC)c(OC)c1 | 0.38 µM | > 100 µM | 0.379 µM | > 100 µM | 0.349 µM | > 100 µM | 2.25 µM | > 100 µM | 0.797 µM | > 100 µM | 0.504 µM | > 100 µM | 0.28 µM | 1.1 µM | 0.347 µM | > 51.2 µM | 1.35 µM | > 100 µM | 17.6 µM | > 94.8 µM
6 | CCN(CC)CCS(=O)(=O)CCNc1ccnc2cc(Cl)ccc12 | 0.782 µM | 6.08 µM | 3.83 µM | 29.6 µM | 2.53 µM | 9.33 µM | 4.31 µM | > 46.1 µM | 2.26 µM | 16.7 µM | 3.17 µM | 13.9 µM | 1.47 µM | 15.3 µM | 2.74 µM | > 25.7 µM | 3.1 µM | > 100 µM | 0.619 µM | 7.39 µM
7 | CCC1=C(c2ccc(OC)cc2)CC[C@]2(CCNC2=O)[C@@H]1C | – | > 89.7 µM | – | 67.1 µM | – | 62.7 µM | – | > 86.7 µM | – | > 100 µM | – | 86.4 µM | – | 61.4 µM | – | > 85.9 µM | – | > 100 µM | – | > 100 µM
8 | C=CC[PH+](c1ccccc1)c1ccccc1.C=CC[PH+](c1ccccc1)c1ccccc1.[Pt+2].[S-]c1ncccn1.[S-]c1ncccn1 | 7.66 µM | 29.2 µM | 8.06 µM | 24.8 µM | 5.67 µM | 31.9 µM | 26.9 µM | > 100 µM | 15.1 µM | 43.8 µM | 23.4 µM | > 100 µM | 2.88 µM | 9.49 µM | 18.5 µM | 48.1 µM | 5.68 µM | 52.8 µM | 2.7 µM | 19.7 µM
9 | CC(C)C/C(=N\NC(=O)c1ccncc1)c1cc(Cl)ccc1O | 0.213 µM | 12.6 µM | 0.451 µM | 8.08 µM | 0.627 µM | 13.3 µM | 0.312 µM | 25.3 µM | 0.224 µM | 17.3 µM | 0.303 µM | > 72.1 µM | 0.204 µM | 5.24 µM | 0.127 µM | 31.8 µM | 0.622 µM | > 46 µM | 0.306 µM | 28.6 µM
10 | CC/C(=C(/c1ccc(/C=C/C(=O)O)cc1)c1ccc2[nH]ncc2c1)c1ccc(F)cc1Cl | 11.9 µM | 25.6 µM | 5.85 µM | 21.8 µM | 7.84 µM | 27.1 µM | 13.2 µM | 32.3 µM | 15.8 µM | 40 µM | 9.44 µM | 23.5 µM | 11.8 µM | 24.9 µM | 10.7 µM | 27.7 µM | 16.2 µM | 34.6 µM | 10.1 µM | 24.8 µM
11 | COC(=O)C1=Nc2ccc(F)cc2/C1=C/c1sc(=S)[nH]c1O | 0.097 µM | 7 µM | 0.248 µM | > 47 µM | 0.0543 µM | > 100 µM | 0.987 µM | > 100 µM | 0.275 µM | 14.9 µM | 0.0838 µM | 14.2 µM | 0.0441 µM | 3.66 µM | 0.0804 µM | 10.1 µM | 0.358 µM | 4.26 µM | 1.19 µM | 14.4 µM
